According to BigSolDB 2.1:

CC(CO)(CO)C(=O)O
solubility (mole fraction)
Settings | 288.15 K | 293.15 K | 298.15 K | 303.15 K | 308.15 K | 313.15 K | 318.15 K | 323.15 K | 328.15 K
in DMF | 0.163 | 0.171 | 0.177 | 0.184 | 0.191 | 0.201 | 0.21 | 0.218 | 0.225
in acetone | 0.00255 | 0.00292 | 0.00366 | 0.004 | 0.00477 | 0.00564 | 0.00645 | 0.00753 | 0.00853
in ethanol | 0.0117 | 0.0135 | 0.0155 | 0.0186 | 0.0214 | 0.0254 | 0.0293 | 0.0341 | 0.0386
in ethyl acetate | 0.00042 | 0.00048 | 0.00056 | 0.00072 | 0.00096 | 0.00131 | 0.00163 | 0.00202 | 0.00253
in isopropanol | 0.00755 | 0.00901 | 0.0114 | 0.0131 | 0.0164 | 0.0185 | 0.0209 | 0.0252 | 0.0306
in methanol | 0.0223 | 0.0254 | 0.0288 | 0.0334 | 0.038 | 0.0436 | 0.0498 | 0.0566 | 0.0635
in methyl acetate | 0.00052 | 0.00072 | 0.00094 | 0.00121 | 0.00149 | 0.00186 | 0.00234 | 0.00301 | 0.0041
in n-butanol | 0.00666 | 0.00759 | 0.00911 | 0.0108 | 0.0132 | 0.0155 | 0.0181 | 0.0214 | 0.0257
in n-butyl acetate | 0.00033 | 0.00038 | 0.00046 | 0.00053 | 0.00063 | 0.00075 | 0.00087 | 0.00098 | 0.00113
in n-propanol | 0.00677 | 0.00775 | 0.00939 | 0.0111 | 0.0136 | 0.0161 | 0.0189 | 0.0226 | 0.027
in sec-butanol | 0.0068 | 0.00792 | 0.00935 | 0.0112 | 0.014 | 0.0165 | 0.0191 | 0.0232 | 0.0277
in water | 0.0133 | 0.0152 | 0.0169 | 0.0199 | 0.0231 | 0.0265 | 0.0305 | 0.0349 | 0.0414
